Assay results taken from US12668600B2 (Kumquat Biosciences Inc., priority 2023, dated 2026).

How the values were obtained:
Format in all cases: biochemical
[1] = target: T1, KRAS G12D (Homo sapiens, UniProt P01116, G12D); test: HTRF KRAS-SOS1 interaction assay, KRAS G12D; settings: binned ≤2 μM / >2 μM, read-out: Inhibition of KRAS G12D (IC50)
T1 construct: made in house; host or cells: E. coli, e.g. BL21 (DE3)
In short: (§1)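 GST-KRAS + anti-GST-Eu; His-hSOS1 + anti-6His-XL665; cpd in DMSO, duplicate, 10–0.01 μM; ~10 min incubation; HTRF ex 337/em 620, 665 nm; IC50 fitted on 665/620 ratio.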

[2] = target: T2, KRAS WT (Homo sapiens, UniProt P01116); test: HTRF KRAS-SOS1 interaction assay, wildtype KRAS; settings: binned ≤2 μM / >2 μM, read-out: Inhibition of KRAS WT (IC50)
T2 construct: made in house; host or cells: E. coli, e.g. BL21 (DE3)
In short: as §1

[3] = target: T3, KRAS G12V (Homo sapiens, UniProt P01116, G12V); test: HTRF KRAS-SOS1 interaction assay, KRAS G12V; settings: binned ≤2 μM / >2 μM, read-out: Inhibition of KRAS G12V (IC50)
T3 construct: made in house; host or cells: E. coli, e.g. BL21 (DE3)
In short: as §1

[4] = target: T4, KRAS G12S (Homo sapiens, UniProt P01116, G12S); test: HTRF KRAS-SOS1 interaction assay, KRAS G12S; settings: binned ≤2 μM / >2 μM, read-out: Inhibition of KRAS G12S (IC50)
T4 construct: made in house; host or cells: E. coli, e.g. BL21 (DE3)
In short: as §1

T2 sequence (P01116 1-188 isoform P01116-2): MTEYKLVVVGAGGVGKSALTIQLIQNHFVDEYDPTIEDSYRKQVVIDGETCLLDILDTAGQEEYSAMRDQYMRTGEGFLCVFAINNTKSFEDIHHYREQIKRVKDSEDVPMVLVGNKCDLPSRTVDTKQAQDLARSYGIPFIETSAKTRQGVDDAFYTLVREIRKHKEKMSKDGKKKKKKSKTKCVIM
T3 sequence (P01116 1-188 isoform P01116-2 G12V): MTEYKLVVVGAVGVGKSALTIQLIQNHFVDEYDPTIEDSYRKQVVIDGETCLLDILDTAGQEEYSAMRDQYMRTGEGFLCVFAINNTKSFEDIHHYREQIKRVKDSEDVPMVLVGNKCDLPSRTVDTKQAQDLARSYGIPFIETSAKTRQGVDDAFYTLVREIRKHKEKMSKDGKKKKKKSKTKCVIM
T4 sequence (P01116 1-188 isoform P01116-2 G12S): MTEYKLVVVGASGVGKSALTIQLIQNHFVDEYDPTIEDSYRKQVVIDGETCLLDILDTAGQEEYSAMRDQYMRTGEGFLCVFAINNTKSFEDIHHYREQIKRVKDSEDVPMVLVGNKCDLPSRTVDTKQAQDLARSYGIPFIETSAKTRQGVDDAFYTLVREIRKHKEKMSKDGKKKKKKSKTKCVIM
T1 sequence (P01116 1-188 isoform P01116-2 G12D): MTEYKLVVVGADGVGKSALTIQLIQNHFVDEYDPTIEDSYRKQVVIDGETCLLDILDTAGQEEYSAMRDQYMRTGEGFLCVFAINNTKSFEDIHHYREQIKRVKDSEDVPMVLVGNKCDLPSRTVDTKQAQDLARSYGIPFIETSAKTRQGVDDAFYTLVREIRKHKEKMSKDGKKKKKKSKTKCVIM

Row | SMILES | IC50 [1] [nM] | IC50 [2] [nM] | IC50 [3] [nM] | IC50 [4] [nM]
1 | N#Cc1c(N)sc2c(F)ccc(-c3c(Cl)c4c5c(nc(OC[C@@]67CCCN6C[C@H](F)C7)nc5c3F)N(C(/C=C/F)c3cccnc3N)CCO4)c12 (single isomer, unassigned) [Compound 708] | ≤ 2000 | ≤ 2000 | ≤ 2000 | ≤ 2000
2 | C#Cc1c(F)ccc2cc(O)cc(-c3nc4c5c(nc(OC[C@@H]6CCCN6C)nc5c3F)N(C(C)c3cccnc3N)CCO4)c12 (mixture of isomers) [Compound 722, 4-(10-(1-(2-aminopyridin-3-yl)ethyl)-4-fluoro-2-(((S)-1-methylpyrrolidin-2-yl)methoxy)-9,10-dihydro-8H-7-oxa-1,3,6,10-tetraazacyclohepta[de]naphthalen-5-yl)-5-ethynyl-6-fluoronaphthalen-2-ol] | ≤ 2000 | ≤ 2000 | ≤ 2000 | ≤ 2000
3 | CCON=C1CN2CCC[C@@]2(COc2nc3c4c(c(Cl)c(-c5ccc(F)c6sc(N)c(C#N)c56)c(F)c4n2)OCCN3[C@H](C)c2cccnc2N)C1 (single isomer, unassigned) [Compound 700] | ≤ 2000 | ≤ 2000 | ≤ 2000 | ≤ 2000
4 | N#Cc1c(N)sc2c(F)ccc(-c3c(C(F)(F)F)c4c5c(nc(OC[C@@]67CCCN6C[C@H](F)C7)nc5c3F)N([C@H](CCn3cccn3)c3cccnc3N)CCO4)c12 [Compound 829, 2-amino-4-(4-((R)-1-(2-aminopyridin-3-yl)-3-(1H-pyrazol-1-yl)propyl)-10-fluoro-2-(((2R,7aS)-2-fluorotetrahydro-1H-pyrrolizin-7a(5H)-yl)methoxy)-8-(trifluoromethyl)-5,6-dihydro-4H-[1,4]oxazepino[5,6,7-de]quinazolin-9-yl)-7-fluorobenzo[b]thiophene-3-carbonitrile] | ≤ 2000 | ≤ 2000 | ≤ 2000 | ≤ 2000
5 | CON=C1CN2CCC[C@@]2(COc2nc3c4c(c(Cl)c(-c5ccc(F)c6sc(N)c(C#N)c56)c(F)c4n2)OCCN3[C@H](C)c2cccnc2N)C1 (mixture of isomers) [Compound 653, 2-amino-4-(4-((R)-1-(2-aminopyridin-3-yl)ethyl)-8-chloro-10-fluoro-2-(((S)-2-(methoxyimino)tetrahydro-1H-pyrrolizin-7a(5H)-yl)methoxy)-5,6-dihydro-4H-[1,4]oxazepino[5,6,7-de]quinazolin-9-yl)-7-fluorobenzo[b]thiophene-3-carbonitrile] | ≤ 2000 | ≤ 2000 | ≤ 2000 | ≤ 2000
6 | CC(=O)N1CCC(C[C@H](c2cccnc2N)N2CCOc3c(C(F)(F)F)c(-c4ccc(F)c5sc(N)c(C#N)c45)c(F)c4nc(OC[C@@]56CCCN5C[C@H](F)C6)nc2c34)CC1 [Compound 658, 4-(4-((R)-2-(1-acetylpiperidin-4-yl)-1-(2-aminopyridin-3-yl)ethyl)-10-fluoro-2-(((2R,7aS)-2-fluorotetrahydro-1H-pyrrolizin-7a(5H)-yl)methoxy)-8-(trifluoromethyl)-5,6-dihydro-4H-[1,4]oxazepino[5,6,7-de]quinazolin-9-yl)-2-amino-7-fluorobenzo[b]thiophene-3-carbonitrile] | ≤ 2000 | ≤ 2000 | ≤ 2000 | ≤ 2000
7 | Cc1ccc([C@@H](C)N2CCOc3c(Cl)c(-c4ccc(F)c5sc(N)c(C#N)c45)c(F)c4nc(OC[C@@]56CCCN5C[C@H](F)C6)nc2c34)c(N)n1 [Compound 736, 2-amino-4-(4-((R)-1-(2-amino-6-methylpyridin-3-yl)ethyl)-8-chloro-10-fluoro-2-(((2R,7aS)-2-fluorotetrahydro-1H-pyrrolizin-7a(5H)-yl)methoxy)-5,6-dihydro-4H-[1,4]oxazepino[5,6,7-de]quinazolin-9-yl)-7-fluorobenzo[b]thiophene-3-carbonitrile] | ≤ 2000 | ≤ 2000 | ≤ 2000 | ≤ 2000
8 | N#Cc1c(N)sc2c(F)ccc(-c3c(C(F)(F)F)c4c5c(nc(OC[C@@]67CCCN6C[C@H](F)C7)nc5c3F)N([C@H](CC3CCOC3)c3cccnc3N)CCO4)c12 (single isomer, unassigned) [Compound 692] | ≤ 2000 | ≤ 2000 | ≤ 2000 | ≤ 2000
9 | CC(c1cccnc1N)N1c2nc(OC[C@@]34CCCN3C[C@H](F)C4)nc3c(F)c(-c4ccc(F)c5sc(N)c(C#N)c45)c(Cl)c(c23)OC[C@@H]1C(F)F (mixture of isomers) [Compound 790, 2-amino-4-((5R)-4-(1-(2-aminopyridin-3-yl)ethyl)-8-chloro-5-(difluoromethyl)-10-fluoro-2-(((2R,7aS)-2-fluorotetrahydro-1H-pyrrolizin-7a(5H)-yl)methoxy)-5,6-dihydro-4H-[1,4]oxazepino[5,6,7-de]quinazolin-9-yl)-7-fluorobenzo[b]thiophene-3-carbonitrile] | ≤ 2000 | ≤ 2000 | ≤ 2000 | ≤ 2000
10 | C[C@H](c1cccnc1N)N1CCOc2c(Cl)c(-c3ccc(F)c4sc(N)c(C#N)c34)c(F)c3nc(OC[C@@]45CCCN4CC(CP(C)(C)=O)C5)nc1c23 (mixture of isomers) [Compound 839, 2-amino-4-(4-((R)-1-(2-aminopyridin-3-yl)ethyl)-8-chloro-2-(((7aS)-2-((dimethylphosphoryl)methyl)tetrahydro-1H-pyrrolizin-7a(5H)-yl)methoxy)-10-fluoro-5,6-dihydro-4H-[1,4]oxazepino[5,6,7-de]quinazolin-9-yl)-7-fluorobenzo[b]thiophene-3-carbonitrile] | ≤ 2000 | ≤ 2000 | ≤ 2000 | ≤ 2000
11 | N#Cc1c(N)sc2c(F)ccc(-c3c(Cl)c4c5c(nc(OC[C@@]67CCCN6C[C@H](F)C7)nc5c3F)N([C@H](/C=C/C(F)F)c3cccnc3N)CCO4)c12 [Compound 731, 2-amino-4-(4-((R,E)-1-(2-aminopyridin-3-yl)-4,4-difluorobut-2-en-1-yl)-8-chloro-10-fluoro-2-(((2R,7aS)-2-fluorotetrahydro-1H-pyrrolizin-7a(5H)-yl)methoxy)-5,6-dihydro-4H-[1,4]oxazepino[5,6,7-de]quinazolin-9-yl)-7-fluorobenzo[b]thiophene-3-carbonitrile] | ≤ 2000 | ≤ 2000 | ≤ 2000 | ≤ 2000
12 | COc1cnc(N)c([C@@H](C)N2CCOc3c(C(F)(F)F)c(-c4ccc(F)c5sc(N)c(C#N)c45)c(F)c4nc(OC[C@@]56CCCN5C[C@H](F)C6)nc2c34)c1 [Compound 815, 2-amino-4-(4-((R)-1-(2-amino-5-methoxypyridin-3-yl)ethyl)-10-fluoro-2-(((2R,7aS)-2-fluorotetrahydro-1H-pyrrolizin-7a(5H)-yl)methoxy)-8-(trifluoromethyl)-5,6-dihydro-4H-[1,4]oxazepino[5,6,7-de]quinazolin-9-yl)-7-fluorobenzo[b]thiophene-3-carbonitrile] | ≤ 2000 | ≤ 2000 | ≤ 2000 | ≤ 2000
13 | N#Cc1c(N)sc2c(F)ccc(-c3c(C(F)(F)F)c4c5c(nc(OC[C@@]67CCCN6CC(=C(F)F)C7)nc5c3F)N([C@H](CCC(F)(F)F)c3cc(F)cnc3N)CCO4)c12 [Compound 640, 2-amino-4-(4-((R)-1-(2-amino-5-fluoropyridin-3-yl)-4,4,4-trifluorobutyl)-2-(((S)-2-(difluoromethylene)tetrahydro-1H-pyrrolizin-7a(5H)-yl)methoxy)-10-fluoro-8-(trifluoromethyl)-5,6-dihydro-4H-[1,4]oxazepino[5,6,7-de]quinazolin-9-yl)-7-fluorobenzo[b]thiophene-3-carbonitrile] | ≤ 2000 | ≤ 2000 | ≤ 2000 | ≤ 2000
14 | N#Cc1c(N)sc2c(F)ccc(-c3c(C(F)(F)F)c4c5c(nc(OC[C@@]67CCCN6C[C@H](F)C7)nc5c3F)N([C@H](CCCN3CCCCC3)c3cccnc3N)CCO4)c12 (single isomer, unassigned) [Compound 704] | ≤ 2000 | ≤ 2000 | ≤ 2000 | ≤ 2000
15 | Cc1c(F)c(N)cc(-c2nc3c4c(nc(OC[C@@]56CCCN5C[C@H](F)C6)nc4c2F)N([C@H](C)c2cccnc2N)CCO3)c1C(F)(F)F (single isomer, unassigned) [Compound 765] | ≤ 2000 | ≤ 2000 | ≤ 2000 | ≤ 2000
16 | CC(Oc1nc2c3c(c(Cl)c(-c4ccc(F)c5sc(N)c(C#N)c45)c(F)c3n1)OCCN2[C@H](C)c1cccnc1N)[C@@H]1CC(F)(F)CN1C (single isomer, unassigned) [Compound 659] | > 2000 | > 2000 | > 2000 | > 2000
17 | CC[S+]([O-])[C@@H]1C[C@]2(COc3nc4c5c(c(Cl)c(-c6ccc(F)c7sc(N)c(C#N)c67)c(F)c5n3)OCCN4[C@H](C)c3cccnc3N)CCC[N+]2([O-])C1 (mixture of isomers) [Compound 626, (2R,7aS)-7a-(((9-(2-amino-3-cyano-7-fluorobenzo[b]thiophen-4-yl)-4-((R)-1-(2-aminopyridin-3-yl)ethyl)-8-chloro-10-fluoro-5,6-dihydro-4H-[1,4]oxazepino[5,6,7-de]quinazolin-2-yl)oxy)methyl)-2-(ethylsulfinyl)hexahydropyrrolizine 4(1H)-oxide] | ≤ 2000 | ≤ 2000 | ≤ 2000 | ≤ 2000
